These results are taken from patent publication US8093284B2, “Process for producing aqueous solution of doripenem” (Shionogi & Co., Ltd., priority 2005, dated 2012).

Molecules are shown by their SMILES.

What all share (format): physicochemical
The nature of series [1]: Decomposition of doripenem on heating and dissolving an aqueous suspension with a continuous heating and dissolving equipment. The conditions noted are these: continuous heating; position of 28 m of the equipment; heating source around 60° C., about 6 L/min, solution around 55° C. at outlet; 15.5 kg in 280 L water. The procedure:
An aqueous suspension of doripenem (aqueous suspension in which 15.5 kg of doripenem had been mixed with 280 L of water) was cooled to 10° C. or lower to suppress decomposition during waiting. This aqueous suspension was passed through a continuous heating and dissolving equipment of an inner diameter of around 23 mm and a length of around 28 m, having a heating source at around 60° C. at about 6 L/min, and elevation in a temperature and dissolution were performed during passage through the machine to obtain an aqueous solution of doripenem at around 55° C. at an outlet of the dissolving machine. A decomposition degree of doripenem at a position of 28 m of the continuous heating and dissolving equipment was about 0.2%.

Series [2] is described as follows: Decomposition of doripenem in an aqueous solution at 40, 50 or 60° C. Particulars: aqueous solution at 40° C., 50° C., or 60° C. The procedure:
Decomposition of doripenem in an aqueous solution of doripenem at 40° C., 50° C., or 60° C. was examined. […] FIG. 2, FIG. 3 and FIG. 4 show a doripenem decomposition curve at each temperature.

The nature of series [3]: Decomposition of doripenem on heating and dissolving an aqueous suspension in a batch manner. The conditions noted are these: heating medium around 60° C., solution around 55° C., measured immediately after dissolution, 15.5 kg in 280 L water. The procedure:
An aqueous suspension of doripenem (aqueous suspension in which 15.5 kg of doripenem had been mixed with 280 L of water) was cooled to 10° C. or lower to suppress decomposition during waiting. This aqueous suspension was dissolved as it was using a heating medium at around 60° C. to obtain an aqueous solution of doripenem, at around 55° C. A decomposition degree of doripenem measured immediately after dissolution of doripenem was about 7%.

In the case of `C[C@@H](O)[C@H]1C(=O)N2C(C(=O)O)=C(S[C@@H]3CN[C@H](CNS(N)(=O)=O)C3)[C@H](C)[C@H]12` [doripenem], the “decomposition degree of doripenem” value in series [1] is listed as “about 0.2%”; in series [3] it was “about 7%”. In series [2], the “decomposition of doripenem in aqueous solution” value is “decomposed at these temperatures with time”.
